# In ChEMBL document CHEMBL1201861, “Genomics of Drug Sensitity in Cancer screening data, Wellcome Trust Sanger Institute”:
# What was measured:
# Assay in all cases: cells
# Assay type in all cases: functional, cell-based
# Settings in all cases: Homo sapiens
# COLO-800 = tested on: COLO-800;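 also: growth inhibition of COLO-800 cells, read out with a cell viability assay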
# Description: SANGER: Inhibition of human COLO-800 cell growth in a cell viability assay.
# COR-L23 = tested on: COR-L23;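 also: cell viability assay measuring how strongly compounds suppress growth of COR-L23 cells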
# Description: SANGER: Inhibition of human COR-L23 cell growth in a cell viability assay.
# CP66-MEL = tested on: CP66-MEL;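 also: growth inhibition of CP66-MEL cells determined in a cell viability assay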
# Description: SANGER: Inhibition of human CP66-MEL cell growth in a cell viability assay.
# D-263MG = tested on: D-263MG
# Description: SANGER: Inhibition of human D-263MG cell growth in a cell viability assay.
# DU-4475 = tested on: DU-4475
# Description: SANGER: Inhibition of human DU-4475 cell growth in a cell viability assay.
# EM-2 = tested on: EM-2;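 also: growth inhibition of EM-2 cells, read out with a cell viability assay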
# Description: SANGER: Inhibition of human EM-2 cell growth in a cell viability assay.
# ES4 = tested on: ES4;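 also: growth inhibition of human ES4 cells, read out by a cell viability assay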
# Description: SANGER: Inhibition of human ES4 cell growth in a cell viability assay.
# ES7 = tested on: ES7;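 also: growth inhibition of cultured human ES7 cells, read out as cell viability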
# Description: SANGER: Inhibition of human ES7 cell growth in a cell viability assay.
# EW-11 = tested on: EW-11;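 also: growth inhibition of human EW-11 cells, measured with a cell viability assay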
# Description: SANGER: Inhibition of human EW-11 cell growth in a cell viability assay.
# EW-18 = tested on: EW-18;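 also: growth inhibition of EW-18 cells, read out by a cell viability assay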
# Description: SANGER: Inhibition of human EW-18 cell growth in a cell viability assay.
# GI-ME-N = tested on: GI-ME-N;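 also: growth inhibition of human GI-ME-N cells, read out with a cell viability assay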
# Description: SANGER: Inhibition of human GI-ME-N cell growth in a cell viability assay.
# GOTO = tested on: GOTO;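 also: growth inhibition of GOTO cells, read out by a cell viability assay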
# Description: SANGER: Inhibition of human GOTO cell growth in a cell viability assay.
# GT3TKB = tested on: GT3TKB;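 also: growth inhibition of the cell line, read out with a cell viability assay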
# Description: SANGER: Inhibition of human GT3TKB cell growth in a cell viability assay.
# HL-60 = tested on: HL-60;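 also: growth inhibition of human HL-60 cells, read out with a cell viability assay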
# Description: SANGER: Inhibition of human HL-60 cell growth in a cell viability assay.
# HT = tested on: HT
# Description: SANGER: Inhibition of human HT cell growth in a cell viability assay.
# IST-MEL1 = tested on: IST-MEL1;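 also: growth inhibition of the cell line, read out with a cell viability assay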
# Description: SANGER: Inhibition of human IST-MEL1 cell growth in a cell viability assay.
# IST-MES1 = tested on: IST-MES1;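 also: growth inhibition of IST-MES1 cells, measured with a cell viability assay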
# Description: SANGER: Inhibition of human IST-MES1 cell growth in a cell viability assay.
# K562 = tested on: K562
# Description: SANGER: Inhibition of human K-562 cell growth in a cell viability assay.
# KE-37 = tested on: KE-37;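 also: growth inhibition of KE-37 cells, read out with a cell viability assay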
# Description: SANGER: Inhibition of human KE-37 cell growth in a cell viability assay.
# KM-H2 = tested on: KM-H2;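 also: growth inhibition of KM-H2 cells, read out by a cell viability assay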
# Description: SANGER: Inhibition of human KM-H2 cell growth in a cell viability assay.
# KNS-42 = tested on: KNS-42;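 also: growth inhibition of KNS-42 cells, read out with a cell viability assay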
# Description: SANGER: Inhibition of human KNS-42 cell growth in a cell viability assay.
# KNS-81-FD = tested on: KNS-81-FD;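 also: growth inhibition of KNS-81-FD cells, read out with a cell viability assay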
# Description: SANGER: Inhibition of human KNS-81-FD cell growth in a cell viability assay.
# KYSE-410 = tested on: KYSE-410;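 also: growth inhibition of KYSE-410 cells, measured through a cell viability readout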
# Description: SANGER: Inhibition of human KYSE-410 cell growth in a cell viability assay.
# L-363 = tested on: L-363
# Description: SANGER: Inhibition of human L-363 cell growth in a cell viability assay.
# L-540 = tested on: L-540;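 also: growth inhibition of the human L-540 cell line, read out with a viability assay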
# Description: SANGER: Inhibition of human L-540 cell growth in a cell viability assay.
# LB2241-RCC = tested on: LB2241-RCC;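 also: cell viability assay measuring how strongly the cultured human renal carcinoma line is prevented from growing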
# Description: SANGER: Inhibition of human LB2241-RCC cell growth in a cell viability assay.
# LB373-MEL-D = tested on: LB373-MEL-D;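 also: growth inhibition of the cell line, read out in a cell viability assay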
# Description: SANGER: Inhibition of human LB373-MEL-D cell growth in a cell viability assay.
# LS-123 = tested on: LS-123
# Description: SANGER: Inhibition of human LS-123 cell growth in a cell viability assay.
# MEG-01 = tested on: MEG-01;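 also: growth inhibition of MEG-01 cells, read out by a cell viability assay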
# Description: SANGER: Inhibition of human MEG-01 cell growth in a cell viability assay.
# ML-2 = tested on: ML-2;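 also: growth inhibition of ML-2 cells, measured with a cell viability readout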
# Description: SANGER: Inhibition of human ML-2 cell growth in a cell viability assay.
# MMAC-SF = tested on: MMAC-SF;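 also: growth inhibition of human MMAC-SF cells, read out with a cell viability assay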
# Description: SANGER: Inhibition of human MMAC-SF cell growth in a cell viability assay.
# MN-60 = tested on: MN-60;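 also: growth inhibition of the MN-60 cell line, determined with a cell viability assay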
# Description: SANGER: Inhibition of human MN-60 cell growth in a cell viability assay.
# NB10 = tested on: NB10;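 also: growth inhibition of NB10 cells, read out by a cell viability assay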
# Description: SANGER: Inhibition of human NB10 cell growth in a cell viability assay.
# NB5 = tested on: NB5;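 also: growth inhibition of NB5 cells, read out as cell viability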
# Description: SANGER: Inhibition of human NB5 cell growth in a cell viability assay.
# NCI-H1299 = tested on: NCI-H1299;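 also: growth inhibition of human NCI-H1299 cells, read out by a cell viability assay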
# Description: SANGER: Inhibition of human NCI-H1299 cell growth in a cell viability assay.
# NCI-H1650 = tested on: NCI-H1650;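 also: growth inhibition of human NCI-H1650 cells measured by a cell viability assay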
# Description: SANGER: Inhibition of human NCI-H1650 cell growth in a cell viability assay.
# NCI-H2170 = tested on: NCI-H2170;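 also: cell viability assay measuring growth inhibition of human NCI-H2170 cancer cells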
# Description: SANGER: Inhibition of human NCI-H2170 cell growth in a cell viability assay.
# NCI-H322M = tested on: NCI-H322M;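 also: cell viability assay measuring inhibition of growth of human NCI-H322M cells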
# Description: SANGER: Inhibition of human NCI-H322M cell growth in a cell viability assay.
# NCI-H446 = tested on: NCI-H446;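 also: growth inhibition of NCI-H446 cells determined by a cell viability assay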
# Description: SANGER: Inhibition of human NCI-H446 cell growth in a cell viability assay.
# SNU-5 = tested on: SNU-5;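 also: cell viability readout used to measure growth inhibition in human NCI-SNU-5 cells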
# Description: SANGER: Inhibition of human NCI-SNU-5 cell growth in a cell viability assay.
# NKM-1 = tested on: NKM-1;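 also: growth inhibition of NKM-1 cells, read out with a cell viability assay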
# Description: SANGER: Inhibition of human NKM-1 cell growth in a cell viability assay.
# NTERA-2-cl-D1 = tested on: NTERA-2-cl-D1;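 also: inhibition of cell growth, measured with a cell viability assay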
# Description: SANGER: Inhibition of human NTERA-S-cl-D1 cell growth in a cell viability assay.
# OVCAR-5 = tested on: OVCAR-5;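 also: growth inhibition of human OVCAR-5 cells, read out with a cell viability assay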
# Description: SANGER: Inhibition of human OVCAR-5 cell growth in a cell viability assay.
# P12-Ichikawa = tested on: P12-Ichikawa
# PSN1 = tested on: PSN1;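 also: suppression of growth of human PSN1 cells, read out by a cell viability assay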
# Description: SANGER: Inhibition of human PSN1 cell growth in a cell viability assay.
# RMG-I = tested on: RMG-I;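 also: growth inhibition of human RMG-I cells, read out with a cell viability assay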
# Description: SANGER: Inhibition of human RMG-I cell growth in a cell viability assay.
# RXF 393 = tested on: RXF 393;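 also: growth inhibition of human RXF 393 cells, read out with a cell viability assay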
# Description: SANGER: Inhibition of human RXF393 cell growth in a cell viability assay.
# SF-268 = tested on: SF-268;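 also: growth inhibition of SF-268 cells determined with a cell viability assay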
# Description: SANGER: Inhibition of human SF268 cell growth in a cell viability assay.
# SF-539 = tested on: SF-539;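 also: Read-out is a cell viability assay, with IC50 reflecting inhibition of cell growth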
# Description: SANGER: Inhibition of human SF539 cell growth in a cell viability assay.
# SH-4 = tested on: SH-4;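 also: growth inhibition of SH-4 cells, read out with a cell viability assay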
# Description: SANGER: Inhibition of human SH-4 cell growth in a cell viability assay.
# SJSA-1 = tested on: SJSA-1;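 also: growth inhibition of human SJSA-1 cells, read out through a cell viability measurement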
# Description: SANGER: Inhibition of human SJSA-1 cell growth in a cell viability assay.
# SK-MEL-2 = tested on: SK-MEL-2;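 also: growth inhibition of human SK-MEL-2 cells measured with a cell viability assay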
# Description: SANGER: Inhibition of human SK-MEL-2 cell growth in a cell viability assay.
# SK-OV-3 = tested on: SK-OV-3;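 also: growth inhibition of SK-OV-3 human cells, read out with a cell viability assay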
# Description: SANGER: Inhibition of human SK-OV-3 cell growth in a cell viability assay.
# A101D = tested on: A101D;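 also: growth inhibition of the cell line, measured with a viability assay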
# Description: SANGER: Inhibition of human A101D cell growth in a cell viability assay.
# A2058 = tested on: A2058;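 also: reduction of A2058 cell growth, read out with a viability assay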
# Description: SANGER: Inhibition of human A2058 cell growth in a cell viability assay.
# A2780 = tested on: A2780;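 also: growth inhibition of A2780 cells, read out with a cell viability assay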
# Description: SANGER: Inhibition of human A2780 cell growth in a cell viability assay.
# ALL-PO = tested on: ALL-PO
# Description: SANGER: Inhibition of human ALL-PO cell growth in a cell viability assay.
# AM-38 = tested on: AM-38
# Description: SANGER: Inhibition of human AM-38 cell growth in a cell viability assay.
# BE-13 = tested on: BE-13
# Description: SANGER: Inhibition of human BE-13 cell growth in a cell viability assay.
# BT-474 = tested on: BT-474
# Description: SANGER: Inhibition of human BT-474 cell growth in a cell viability assay.
# Becker = tested on: Becker
# Description: SANGER: Inhibition of human Becker cell growth in a cell viability assay.
# TE-10 = tested on: TE-10
# Description: SANGER: Inhibition of human TE-10 cell growth in a cell viability assay.
# UACC-257 = tested on: UACC-257
# Description: SANGER: Inhibition of human UACC-257 cell growth in a cell viability assay.
# VA-ES-BJ = tested on: VA-ES-BJ
# Description: SANGER: Inhibition of human VA-ES-BJ cell growth in a cell viability assay.
# no-11 = tested on: no-11
# Description: SANGER: Inhibition of human no-11 cell growth in a cell viability assay.
# COLO-320-HSR = tested on: COLO-320-HSR
# Description: SANGER: Inhibition of human COLO-320-HSR cell growth in a cell viability assay.
smiles,measurement,setting,value
N#C/C(=C1/Nc2ccccc2S1)c1ccnc(NCCc2cccnc2)n1,IC50,COLO-800,> 8000 nM
same,IC50,COR-L23,> 8000 nM
same,IC50,CP66-MEL,> 8000 nM
same,IC50,D-263MG,> 8000 nM
same,IC50,DU-4475,> 8000 nM
same,IC50,EM-2,> 8000 nM
same,IC50,ES4,> 8000 nM
same,IC50,ES7,3030 nM
same,IC50,EW-11,> 8000 nM
same,IC50,EW-18,> 8000 nM
same,IC50,GI-ME-N,> 8000 nM
same,IC50,GOTO,> 8000 nM
same,IC50,GT3TKB,> 8000 nM
same,IC50,HL-60,> 8000 nM
same,IC50,HT,> 8000 nM
same,IC50,IST-MEL1,> 8000 nM
same,IC50,IST-MES1,> 8000 nM
same,IC50,K562,> 8000 nM
same,IC50,KE-37,> 8000 nM
same,IC50,KM-H2,> 8000 nM
same,IC50,KNS-42,> 8000 nM
same,IC50,KNS-81-FD,> 8000 nM
same,IC50,KYSE-410,> 8000 nM
same,IC50,L-363,> 8000 nM
same,IC50,L-540,> 8000 nM
same,IC50,LB2241-RCC,> 8000 nM
same,IC50,LB373-MEL-D,> 8000 nM
same,IC50,LS-123,> 8000 nM
same,IC50,MEG-01,> 8000 nM
same,IC50,ML-2,> 8000 nM
same,IC50,MMAC-SF,> 8000 nM
same,IC50,MN-60,> 8000 nM
same,IC50,NB10,> 8000 nM
same,IC50,NB5,> 8000 nM
same,IC50,NCI-H1299,4780 nM
same,IC50,NCI-H1650,> 8000 nM
same,IC50,NCI-H2170,> 8000 nM
same,IC50,NCI-H322M,> 8000 nM
same,IC50,NCI-H446,> 8000 nM
same,IC50,SNU-5,> 8000 nM
same,IC50,NKM-1,2310 nM
same,IC50,NTERA-2-cl-D1,> 8000 nM
same,IC50,OVCAR-5,> 8000 nM
same,IC50,P12-Ichikawa,> 8000 nM
same,IC50,PSN1,> 8000 nM
same,IC50,RMG-I,> 8000 nM
same,IC50,RXF 393,> 8000 nM
same,IC50,SF-268,> 8000 nM
same,IC50,SF-539,> 8000 nM
same,IC50,SH-4,> 8000 nM
same,IC50,SJSA-1,> 8000 nM
same,IC50,SK-MEL-2,> 8000 nM
same,IC50,SK-OV-3,> 8000 nM
same,IC50,A101D,2220 nM
same,IC50,A2058,> 8000 nM
same,IC50,A2780,> 8000 nM
same,IC50,ALL-PO,1790 nM
same,IC50,AM-38,> 8000 nM
same,IC50,BE-13,> 8000 nM
same,IC50,BT-474,> 8000 nM
same,IC50,Becker,4340 nM
same,IC50,TE-10,2230 nM
same,IC50,UACC-257,> 8000 nM
same,IC50,VA-ES-BJ,> 8000 nM
same,IC50,no-11,> 8000 nM
same,IC50,COLO-320-HSR,> 8000 nM
CC(C)=CC[C@@H](O)C1=CC(=O)c2c(O)ccc(O)c2C1=O [SHIKONIN],IC50,COLO-800,> 16000 nM
same,IC50,COR-L23,301 nM
same,IC50,CP66-MEL,2400 nM
same,IC50,D-263MG,2230 nM
same,IC50,DU-4475,180 nM
same,IC50,EM-2,977 nM
same,IC50,ES4,4630 nM
same,IC50,ES7,548 nM
same,IC50,EW-11,447 nM
same,IC50,EW-18,529 nM
same,IC50,GI-ME-N,552 nM
same,IC50,GOTO,4590 nM
same,IC50,GT3TKB,346 nM
same,IC50,HL-60,1920 nM
same,IC50,HT,1090 nM
same,IC50,IST-MEL1,15000 nM
same,IC50,IST-MES1,1700 nM
same,IC50,K562,> 16000 nM
same,IC50,KE-37,244 nM
same,IC50,KM-H2,1040 nM
same,IC50,KNS-42,> 16000 nM
same,IC50,KNS-81-FD,1080 nM
same,IC50,KYSE-410,752 nM
same,IC50,L-363,> 16000 nM
same,IC50,L-540,4900 nM
same,IC50,LB2241-RCC,1290 nM
same,IC50,LB373-MEL-D,391 nM
same,IC50,LS-123,538 nM
same,IC50,MEG-01,451 nM
same,IC50,ML-2,618 nM
same,IC50,MMAC-SF,752 nM
same,IC50,MN-60,348 nM
same,IC50,NB10,1340 nM
same,IC50,NB5,2430 nM
same,IC50,NCI-H1299,1070 nM
same,IC50,NCI-H1650,1380 nM
same,IC50,NCI-H2170,1720 nM
same,IC50,NCI-H322M,> 16000 nM
same,IC50,NCI-H446,> 16000 nM
same,IC50,SNU-5,9540 nM
same,IC50,NKM-1,101 nM
same,IC50,NTERA-2-cl-D1,144 nM
same,IC50,OVCAR-5,1120 nM
same,IC50,P12-Ichikawa,1390 nM
same,IC50,PSN1,> 16000 nM
same,IC50,RMG-I,864 nM
same,IC50,RXF 393,749 nM
same,IC50,SF-268,5580 nM
same,IC50,SF-539,857 nM
same,IC50,SH-4,371 nM
same,IC50,SJSA-1,5530 nM
same,IC50,SK-MEL-2,6330 nM
same,IC50,SK-OV-3,1560 nM
same,IC50,A101D,< 62.5 nM
same,IC50,A2058,919 nM
same,IC50,A2780,2560 nM
same,IC50,ALL-PO,315 nM
same,IC50,AM-38,96.3 nM
same,IC50,BE-13,1200 nM
same,IC50,BT-474,208 nM
same,IC50,Becker,1580 nM
same,IC50,TE-10,986 nM
same,IC50,UACC-257,> 16000 nM
same,IC50,VA-ES-BJ,401 nM
same,IC50,no-11,805 nM
same,IC50,COLO-320-HSR,384 nM
